Among the test systems are M14 melanoma; 786-0 renal; HCC-2998 colon; NCI-H23 lung; CAKI-1 renal; PC-3 prostate; OVCAR-4 ovarian; OVCAR-3 ovarian; RXF 393 renal; MDA-MB-231 breast; UACC-62 melanoma; T-47D breast; BT-549 breast; HT29 colon; SF-539 CNS; SN12C renal; UACC-257 melanoma; SK-OV-3 ovarian; NCI-H460 lung; SK-MEL-28 melanoma.
Holding throughout (assay): DTP human tumour cell line panel, 48 h

The values below come from PubChem BioAssay (NCI).

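Exposure lasted 48 hours, with cells grown in 96-well plates and compounds tested at five concentrations. TGI is the concentration that stops growth completely.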

What is called TGI is the concentration at which net growth stops. Higher therefore signals lower sensitivity of the cells. As to `O=C(C1OC1c1cccc([N+](=O)[O-])c1)C12CC3CC(CC(C3)C1)C2` (stereo not given), the TGI in the assay with M14 melanoma worked out at 22.8 µM; with 786-0 renal, 7.1 µM; in the assay with HCC-2998 colon, 14.5 µM; with NCI-H23 lung, 17.7 µM; in the assay with CAKI-1 renal, 24.5 µM; in the assay on PC-3 prostate, 16.1 µM. The concentration for total growth inhibition (TGI) worked out at 15.4 µM in the assay with OVCAR-4 ovarian; 12.5 µM in the assay with OVCAR-3 ovarian; 16.8 µM with RXF 393 renal; 17.5 µM in the assay on MDA-MB-231 breast; 14.1 µM with UACC-62 melanoma; 26.3 µM in the assay on T-47D breast. Further, the TGI in the assay on BT-549 breast was 12.6 µM; in the assay with HT29 colon, 13 µM; with SF-539 CNS, 22.6 µM; with SN12C renal, 13.2 µM; in the assay with UACC-257 melanoma, 25.4 µM; with SK-OV-3 ovarian it was 31.6 µM. Besides, the TGI with NCI-H460 lung was 14.5 µM; with SK-MEL-28 melanoma, 25.6 µM.

For `[N-]=[N+]=Nc1ccc2c(c1)Sc1ccccc1N2CCCCN1CCN(C(=O)CCNC(=O)Cc2ccc(C(=O)c3ccccc3)cc2)CC1`, the total growth inhibition concentration (TGI) with M14 melanoma is 11.8 µM; in the assay on 786-0 renal, 22.9 µM; with HCC-2998 colon it was 6.08 µM; with NCI-H23 lung it was above 44 µM; with CAKI-1 renal, above 100 µM; in the assay on PC-3 prostate it was above 21.3 µM. Further, the TGI is above 25.6 µM with OVCAR-4 ovarian; 18.3 µM in the assay on OVCAR-3 ovarian; above 100 µM in the assay on RXF 393 renal; 16.9 µM in the assay on MDA-MB-231 breast; 19.6 µM with UACC-62 melanoma; 28.7 µM in the assay on T-47D breast. For the same molecule, the concentration for total growth inhibition (TGI) with BT-549 breast is 10.6 µM; in the assay on HT29 colon, 4.67 µM; in the assay on SF-539 CNS it was 17.2 µM; with SN12C renal, above 33 µM; with UACC-257 melanoma, 9.96 µM; with SK-OV-3 ovarian, above 100 µM. The values for the TGI with NCI-H460 lung and with SK-MEL-28 melanoma were above 23.3 µM and 9.89 µM, respectively.

`COCOc1cc(OC)ccc1C/C(=N/O)C(=O)OC`: the TGI in the assay with M14 melanoma, in the assay with 786-0 renal, with HCC-2998 colon, with NCI-H23 lung, in the assay on CAKI-1 renal and in the assay with PC-3 prostate was above 100 µM throughout. The TGI with OVCAR-4 ovarian, in the assay on OVCAR-3 ovarian, with RXF 393 renal, in the assay on MDA-MB-231 breast, in the assay with UACC-62 melanoma and in the assay on T-47D breast was above 100 µM in each case. Besides, the TGI with BT-549 breast, with HT29 colon, in the assay with SF-539 CNS, in the assay with SN12C renal, with UACC-257 melanoma and in the assay on SK-OV-3 ovarian was above 100 µM throughout. In addition, the concentration for total growth inhibition (TGI) with NCI-H460 lung and in the assay with SK-MEL-28 melanoma was above 100 µM in each case.

Consider `COc1ccc(C2C3=C(COC3=O)OC(C)(C)Oc3cc4c(cc32)OCO4)cc1OC` (stereo not given), for which the TGI in the assay with M14 melanoma was above 80.3 µM; with 786-0 renal, above 100 µM; in the assay with HCC-2998 colon it was above 100 µM; with NCI-H23 lung, above 100 µM; with CAKI-1 renal, above 100 µM; with PC-3 prostate, 72.4 µM. The TGI with OVCAR-4 ovarian is above 100 µM; with OVCAR-3 ovarian it was above 100 µM; with RXF 393 renal, 68.8 µM; in the assay with MDA-MB-231 breast it was above 84.1 µM; with UACC-62 melanoma, above 75.4 µM; with T-47D breast it was 96.9 µM. Further, the TGI is 99.5 µM in the assay with BT-549 breast; above 100 µM with HT29 colon; 72.6 µM in the assay with SF-539 CNS; above 100 µM in the assay on SN12C renal; above 100 µM in the assay with UACC-257 melanoma; above 100 µM in the assay with SK-OV-3 ovarian. Besides, the TGI in the assay with NCI-H460 lung and in the assay on SK-MEL-28 melanoma was above 100 µM in each case.

As for `CC(=O)NC1(C)C(C)C2CC1C(C)C2(C)C` (stereo not given), the TGI with M14 melanoma, in the assay on 786-0 renal, in the assay with HCC-2998 colon, in the assay with NCI-H23 lung, in the assay with CAKI-1 renal and in the assay on PC-3 prostate was above 100 µM throughout. Moreover, the total growth inhibition concentration (TGI) in the assay with OVCAR-4 ovarian, in the assay on OVCAR-3 ovarian, with RXF 393 renal, in the assay with MDA-MB-231 breast, in the assay on UACC-62 melanoma and in the assay with T-47D breast was above 100 µM in each case. Also, the TGI in the assay on BT-549 breast, in the assay with HT29 colon, with SF-539 CNS, with SN12C renal, with UACC-257 melanoma and in the assay with SK-OV-3 ovarian was above 100 µM each time. The TGI in the assay on NCI-H460 lung and in the assay with SK-MEL-28 melanoma was above 100 µM throughout.

As for `C[C@H]1O[C@@H](C(C)(C)C)OC(=O)[C@@H]1C(OC(=O)c1ccccc1)c1cccc2ccccc12` (stereo not given in full), the concentration for total growth inhibition (TGI) in the assay with M14 melanoma, in the assay on 786-0 renal, in the assay with HCC-2998 colon, in the assay with NCI-H23 lung, in the assay on CAKI-1 renal and with PC-3 prostate was above 100 µM each time. Further, the concentration for total growth inhibition (TGI) with OVCAR-4 ovarian, with OVCAR-3 ovarian, in the assay with RXF 393 renal, in the assay with MDA-MB-231 breast, in the assay on UACC-62 melanoma and with T-47D breast was above 100 µM each time. In addition, the total growth inhibition concentration (TGI) in the assay on BT-549 breast, with HT29 colon, with SF-539 CNS, with SN12C renal, with UACC-257 melanoma and in the assay on SK-OV-3 ovarian was above 100 µM throughout. Further, the TGI with NCI-H460 lung and in the assay with SK-MEL-28 melanoma was above 100 µM in each case.

As for `Cc1cn(C2OC(CO)C(O)C2F)c(=O)[nH]c1=O` (stereo not given), the TGI in the assay on M14 melanoma, in the assay with 786-0 renal, in the assay with HCC-2998 colon, in the assay on NCI-H23 lung, with CAKI-1 renal and in the assay with PC-3 prostate was above 100 µM in each case. The TGI with OVCAR-4 ovarian, with OVCAR-3 ovarian, in the assay with RXF 393 renal, in the assay with MDA-MB-231 breast, in the assay with UACC-62 melanoma and in the assay on T-47D breast was above 100 µM throughout. Moreover, the TGI with BT-549 breast, with HT29 colon, with SF-539 CNS, with SN12C renal, in the assay on UACC-257 melanoma and in the assay on SK-OV-3 ovarian was above 100 µM in each case. In addition, the concentration for total growth inhibition (TGI) in the assay with NCI-H460 lung and with SK-MEL-28 melanoma was above 100 µM in each case.
